# From patent US9422289B2, “Use of pteridine derivatives for the treatment of increased intracranial pressure, secondary ischemia, and disorders associated with an increased level of cytotoxic reactive oxygen species” (VASOPHARM GMBH, priority 2003, dated 2016)
# How the values were obtained:
# [1] = test system: α1 (non-selective); experiment: Radioligand binding, Cerep 802-1a; details: 10 µM
# [2] = test system: α2 (non-selective); experiment: Radioligand binding, Cerep 802-1b; details: 10 µM
# [3] = target: β1 (h) (Homo sapiens, UniProt P08588); format: binding; details: 10 µM
# [4] = target: β2 (h) (Homo sapiens, UniProt P07550); format: binding; details: 10 µM
# [5] = target: AT1 (h) (Homo sapiens, UniProt P30556); experiment: Radioligand binding, Cerep 821-1h; details: 10 µM
# [6] = target: AT2 (h) (Homo sapiens, UniProt P50052); format: binding; details: 10 µM
# [7] = target: D1 (h) (Homo sapiens, UniProt P21728); format: binding; details: 10 µM
# [8] = target: D2 (h) (Homo sapiens, UniProt P14416); format: binding; details: 10 µM
# [9] = target: ETA (h) (Homo sapiens, UniProt P25101); format: binding; details: 10 µM
# [10] = target: ETB (h) (Homo sapiens, UniProt P24530); experiment: Radioligand binding, Cerep 825-2h; details: 10 µM
# [11] = test system: GABA (non-selective); format: binding; details: 10 µM
# [12] = test system: GABAA; experiment: Radioligand binding, Cerep 804-1; details: 10 µM
# [13] = target: GABAB (Rattus norvegicus, UniProt Q9Z0U4); format: binding; details: 10 µM
# [14] = test system: AMPA; experiment: Radioligand binding, Cerep 895-1; details: 10 µM
# [15] = test system: Kainate; experiment: Radioligand binding, Cerep 895-2; details: 10 µM
# [16] = test system: NMDA; experiment: Radioligand binding, Cerep 895-3; details: 10 µM
# [17] = target: EGF (h) (Homo sapiens, UniProt P00533); experiment: Radioligand binding, Cerep […]; details: 10 µM
# [18] = test system: PDGF; experiment: Radioligand binding, Cerep 881; details: 10 µM
# [19] = target: H1 (central) (Cavia porcellus, UniProt P31389); format: binding; details: 10 µM
# [20] = target: H2 (Cavia porcellus, UniProt P47747); format: binding; details: 10 µM
# [21] = test system: IP3; experiment: Radioligand binding, Cerep 861-5; details: 10 µM
# [22] = target: M1 (h) (Homo sapiens, UniProt P11229); format: binding; details: 10 µM
# [23] = target: M2 (h) (Homo sapiens, UniProt P08172); format: binding; details: 10 µM
# [24] = target: M3 (h) (Homo sapiens, UniProt P20309); experiment: Radioligand binding, Cerep 806-3h; details: 10 µM
# [25] = target: PAF (Oryctolagus cuniculus, UniProt G1TEI7); experiment: Radioligand binding, Cerep 830; details: 10 µM
# [26] = target: 5-HT1B (Rattus norvegicus, UniProt P28564); format: binding; details: 10 µM
# [27] = test system: 5-HT1D; experiment: Radioligand binding, Cerep 808-1d; details: 10 µM
# [28] = target: T1, 5-HT2A (h) (Homo sapiens, UniProt P28223); experiment: Radioligand binding, Cerep 808-2h; details: 10 µM
# T1 construct: Cerep (assay catalogue, edition 2002) 808-2h
# [29] = target: T2, 5-HT2B (h) (Homo sapiens, UniProt P41595); format: binding; details: 10 µM
# T2 construct: Cerep (assay catalogue, edition 2002) 808-2bh
# [30] = test system: Estrogen (ER); experiment: Radioligand binding, Cerep 813; details: 10 µM
# [31] = target: T3, Vitamin D3 (h) (Homo sapiens, UniProt P11473); format: binding; details: 10 µM
# T3 construct: Cerep (assay catalogue, edition 2002) 848-h
# [32] = test system: Ca^2+ channel (L, DHP site); format: binding; details: 10 µM
# [33] = test system: Ca^2+ channel (L, diltiazem site); format: binding; details: 10 µM
# [34] = test system: Ca^2+ channel (L, verapamil site); experiment: Radioligand binding, Cerep 861-L3; details: 10 µM
# [35] = target: K^+ATP channel (Rattus norvegicus, UniProt Q09429); experiment: Radioligand binding, Cerep 863-1; details: 10 µM
# [36] = test system: K^+V channel; experiment: Radioligand binding, Cerep 863-2; details: 10 µM
# [37] = test system: SK^+Ca channel; experiment: Radioligand binding, Cerep 863-3; details: 10 µM
# [38] = target: T4, NOS inducible (whole cells/spectrophoto.) (Mus musculus, UniProt P29477); experiment: Cell biology assay, Cerep 766-i1; format: cell-based; details: 10 µM
# T4 construct: Cerep (assay catalogue, edition 2002) 766-i1
# [39] = target: T5, NOS constitutive (h) (endothelial) (Homo sapiens, UniProt P29474); format: biochemical; details: 10 µM
# T5 construct: Cerep (assay catalogue, edition 2002) 766-c
# [40] = target: Phosphodiesterase III (h) (Homo sapiens, UniProt Q14432); experiment: Cell biology assay, Cerep 752-ch; format: biochemical; details: 10 µM
# [41] = target: T6, Phosphodiesterase V (h) (Homo sapiens, UniProt O76074); format: biochemical; details: 10 µM
# T6 construct: Cerep (assay catalogue, edition 2002) 752-e
# [42] = test system: Ca^2+-ATPase (pump); experiment: Cell biology assay, Cerep 735; format: cell-based; details: 10 µM
# [43] = test system: L-type Ca^2+ channel (stimulated); experiment: Cell biology assay, Cerep 740-1; format: cell-based; details: 10 µM
# [44] = test system: Na^+ channel (h) (stimulated); experiment: Cell biology assay, Cerep 739-1; format: cell-based, human; details: 10 µM
# [45] = test system: Na^+/K^+ ATPase (pump); experiment: Cell biology assay, Cerep 734; format: cell-based; details: 10 µM
# [46] = test system: Protein kinase A (stimulated); experiment: Cell biology assay, Cerep 706-2; format: cell-based; details: 10 µM
# [47] = target: NE uptake (Rattus norvegicus, UniProt Q63380); format: cell-based; details: 10 µM
# [48] = target: DA uptake (Rattus norvegicus, UniProt P23977); format: cell-based; details: 10 µM
# [49] = target: 5-HT uptake (Rattus norvegicus, UniProt P31652); format: cell-based; details: 10 µM
# [50] = test system: Cell proliferation (h) (EGF-stimulated A-431); experiment: cells; format: cell-based, human; details: 10 µM
# [51] = test system: Cell proliferation (PDGF-stimulated Balb/c 3T3); experiment: Cell biology assay, Cerep 791-3; format: cell-based; details: 10 µM
# [52] = test system: ATPase (Na^+/K^+); experiment: Cell biology assay, Cerep 760; format: biochemical; details: 10 µM
# [53] = target: Acetylcholinesterase (h) (Homo sapiens, UniProt P22303); format: biochemical; details: 10 µM
# [54] = test system: β-adrenoceptor - G protein coupling; format: cell-based
# [55] = test system: β-adrenoceptor -G protein coupling; format: cell-based; details: 10 µM
# [56] = test system: isolated rat basilar arteries (BA); experiment: Contractile action in isolated rat basilar arteries
# [57] = test system: isolated rat middle cerebral arteries (MCA); experiment: Contractile action in isolated rat middle cerebral arteries
# T4 sequence (P29477 whole entry): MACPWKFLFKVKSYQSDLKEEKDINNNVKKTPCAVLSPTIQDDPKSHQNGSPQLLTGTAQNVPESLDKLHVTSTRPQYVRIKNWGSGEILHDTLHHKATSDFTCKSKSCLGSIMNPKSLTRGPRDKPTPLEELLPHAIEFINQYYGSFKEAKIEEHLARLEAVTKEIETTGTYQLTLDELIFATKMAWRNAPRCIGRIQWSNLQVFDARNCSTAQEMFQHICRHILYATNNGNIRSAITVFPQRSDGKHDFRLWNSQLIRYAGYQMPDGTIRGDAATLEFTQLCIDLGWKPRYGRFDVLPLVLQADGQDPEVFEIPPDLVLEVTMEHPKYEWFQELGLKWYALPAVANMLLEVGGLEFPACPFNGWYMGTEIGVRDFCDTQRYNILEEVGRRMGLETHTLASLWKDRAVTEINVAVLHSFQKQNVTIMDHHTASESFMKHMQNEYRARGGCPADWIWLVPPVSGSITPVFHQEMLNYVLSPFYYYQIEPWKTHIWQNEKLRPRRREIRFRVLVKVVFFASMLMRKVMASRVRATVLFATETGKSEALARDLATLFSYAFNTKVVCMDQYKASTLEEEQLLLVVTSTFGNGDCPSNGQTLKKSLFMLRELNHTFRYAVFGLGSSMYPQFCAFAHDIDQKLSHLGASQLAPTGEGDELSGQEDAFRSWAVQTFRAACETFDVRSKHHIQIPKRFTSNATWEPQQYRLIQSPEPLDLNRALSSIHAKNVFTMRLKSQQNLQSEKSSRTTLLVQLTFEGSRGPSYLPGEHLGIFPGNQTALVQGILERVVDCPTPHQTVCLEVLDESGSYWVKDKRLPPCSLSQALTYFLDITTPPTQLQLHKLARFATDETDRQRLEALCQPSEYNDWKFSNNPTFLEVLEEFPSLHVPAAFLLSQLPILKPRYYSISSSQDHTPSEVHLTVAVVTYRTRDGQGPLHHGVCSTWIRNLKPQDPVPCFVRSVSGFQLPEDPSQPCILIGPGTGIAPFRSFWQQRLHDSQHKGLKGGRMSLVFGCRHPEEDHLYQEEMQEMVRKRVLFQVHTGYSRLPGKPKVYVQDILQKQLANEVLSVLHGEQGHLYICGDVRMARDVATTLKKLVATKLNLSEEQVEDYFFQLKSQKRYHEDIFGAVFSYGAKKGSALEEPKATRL
# NE uptake, sequence (Q63380 entry or part of it): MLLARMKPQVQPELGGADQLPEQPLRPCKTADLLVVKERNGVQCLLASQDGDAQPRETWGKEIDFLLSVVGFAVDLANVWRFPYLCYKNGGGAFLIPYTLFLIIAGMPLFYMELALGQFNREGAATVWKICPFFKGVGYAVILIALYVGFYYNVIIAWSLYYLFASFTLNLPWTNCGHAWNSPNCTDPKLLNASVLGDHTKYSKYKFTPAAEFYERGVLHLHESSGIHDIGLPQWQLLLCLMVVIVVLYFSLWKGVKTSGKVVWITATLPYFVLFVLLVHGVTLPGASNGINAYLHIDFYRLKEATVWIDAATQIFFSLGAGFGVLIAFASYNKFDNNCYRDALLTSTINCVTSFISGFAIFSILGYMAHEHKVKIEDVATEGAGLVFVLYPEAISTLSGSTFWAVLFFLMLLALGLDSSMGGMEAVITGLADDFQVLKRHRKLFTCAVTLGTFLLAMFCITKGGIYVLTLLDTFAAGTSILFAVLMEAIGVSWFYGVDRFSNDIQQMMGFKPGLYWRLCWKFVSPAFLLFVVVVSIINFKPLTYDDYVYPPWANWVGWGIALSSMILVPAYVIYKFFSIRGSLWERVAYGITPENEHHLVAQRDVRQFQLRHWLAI
# PAF, sequence (G1TEI7 1-342): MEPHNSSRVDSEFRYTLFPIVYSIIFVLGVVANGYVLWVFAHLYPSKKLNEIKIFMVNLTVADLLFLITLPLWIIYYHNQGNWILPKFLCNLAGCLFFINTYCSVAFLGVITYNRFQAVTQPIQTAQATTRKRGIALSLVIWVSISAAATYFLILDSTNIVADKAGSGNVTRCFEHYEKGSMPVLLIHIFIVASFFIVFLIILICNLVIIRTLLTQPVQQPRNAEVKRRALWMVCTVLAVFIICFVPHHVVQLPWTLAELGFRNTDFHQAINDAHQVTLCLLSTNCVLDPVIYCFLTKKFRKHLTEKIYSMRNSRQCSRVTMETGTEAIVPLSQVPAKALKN
# T3 sequence (P11473 whole entry): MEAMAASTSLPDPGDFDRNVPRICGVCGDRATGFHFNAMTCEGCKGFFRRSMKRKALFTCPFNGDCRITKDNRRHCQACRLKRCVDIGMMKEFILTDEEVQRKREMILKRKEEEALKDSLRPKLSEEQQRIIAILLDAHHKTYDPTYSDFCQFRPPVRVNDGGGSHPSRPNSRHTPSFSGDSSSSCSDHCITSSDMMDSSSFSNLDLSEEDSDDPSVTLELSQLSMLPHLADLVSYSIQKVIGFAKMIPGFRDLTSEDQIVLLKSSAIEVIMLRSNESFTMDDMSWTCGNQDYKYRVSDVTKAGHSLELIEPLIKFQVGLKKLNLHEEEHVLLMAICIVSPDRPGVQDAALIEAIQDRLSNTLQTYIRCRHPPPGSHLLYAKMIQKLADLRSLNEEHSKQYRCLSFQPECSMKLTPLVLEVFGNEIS
# M2 (h), sequence (P08172 whole entry): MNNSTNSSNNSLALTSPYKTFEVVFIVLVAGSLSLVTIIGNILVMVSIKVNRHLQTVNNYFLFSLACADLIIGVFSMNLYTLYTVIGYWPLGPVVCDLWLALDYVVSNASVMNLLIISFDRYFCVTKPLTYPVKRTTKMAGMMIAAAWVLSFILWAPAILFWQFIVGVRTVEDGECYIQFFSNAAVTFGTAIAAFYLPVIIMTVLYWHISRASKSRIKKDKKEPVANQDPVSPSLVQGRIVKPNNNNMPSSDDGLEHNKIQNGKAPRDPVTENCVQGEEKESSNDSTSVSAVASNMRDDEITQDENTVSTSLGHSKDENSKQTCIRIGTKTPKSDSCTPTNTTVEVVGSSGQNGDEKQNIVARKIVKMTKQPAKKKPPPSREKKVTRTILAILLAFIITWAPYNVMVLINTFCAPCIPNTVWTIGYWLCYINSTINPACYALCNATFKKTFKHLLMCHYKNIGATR
# ETA (h), sequence (P25101 21-427): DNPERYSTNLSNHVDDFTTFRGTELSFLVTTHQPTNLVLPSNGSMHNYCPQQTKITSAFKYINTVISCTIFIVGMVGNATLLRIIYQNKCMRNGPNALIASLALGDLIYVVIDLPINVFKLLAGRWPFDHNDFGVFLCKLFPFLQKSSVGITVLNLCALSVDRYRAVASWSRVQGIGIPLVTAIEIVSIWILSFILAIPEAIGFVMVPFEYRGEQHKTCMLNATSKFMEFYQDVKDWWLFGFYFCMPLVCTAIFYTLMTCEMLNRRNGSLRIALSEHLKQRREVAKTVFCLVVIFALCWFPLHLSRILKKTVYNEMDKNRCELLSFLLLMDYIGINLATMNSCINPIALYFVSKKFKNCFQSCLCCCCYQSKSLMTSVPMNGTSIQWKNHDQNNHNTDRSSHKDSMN
# Acetylcholinesterase (h), sequence (P22303 32-614): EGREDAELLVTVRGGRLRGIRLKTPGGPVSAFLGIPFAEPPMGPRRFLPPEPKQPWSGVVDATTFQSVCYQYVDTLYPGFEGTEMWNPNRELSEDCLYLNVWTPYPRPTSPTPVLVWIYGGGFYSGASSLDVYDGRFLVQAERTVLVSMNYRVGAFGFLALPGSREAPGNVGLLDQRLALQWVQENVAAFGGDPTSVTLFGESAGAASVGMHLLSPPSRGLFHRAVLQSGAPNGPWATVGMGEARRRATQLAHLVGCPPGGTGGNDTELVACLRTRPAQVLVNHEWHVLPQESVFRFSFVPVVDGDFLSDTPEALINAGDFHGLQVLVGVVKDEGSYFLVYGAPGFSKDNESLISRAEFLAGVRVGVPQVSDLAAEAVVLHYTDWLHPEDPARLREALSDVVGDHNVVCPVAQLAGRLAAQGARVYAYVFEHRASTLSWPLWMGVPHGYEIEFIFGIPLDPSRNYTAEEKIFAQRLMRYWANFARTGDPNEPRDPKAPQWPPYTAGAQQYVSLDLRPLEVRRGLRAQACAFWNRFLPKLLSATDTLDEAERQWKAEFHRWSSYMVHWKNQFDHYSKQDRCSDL
# H2, sequence (P47747 whole entry): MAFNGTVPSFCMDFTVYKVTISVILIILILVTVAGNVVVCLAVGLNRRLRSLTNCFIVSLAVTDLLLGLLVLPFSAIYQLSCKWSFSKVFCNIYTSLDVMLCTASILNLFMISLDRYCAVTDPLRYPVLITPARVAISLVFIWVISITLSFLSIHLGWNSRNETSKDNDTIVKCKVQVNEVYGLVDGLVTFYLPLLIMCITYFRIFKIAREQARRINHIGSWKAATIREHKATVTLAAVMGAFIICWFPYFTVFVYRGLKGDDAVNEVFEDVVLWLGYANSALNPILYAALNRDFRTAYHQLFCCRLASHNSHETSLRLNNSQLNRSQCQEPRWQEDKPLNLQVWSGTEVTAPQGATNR
# DA uptake, sequence (P23977 whole entry): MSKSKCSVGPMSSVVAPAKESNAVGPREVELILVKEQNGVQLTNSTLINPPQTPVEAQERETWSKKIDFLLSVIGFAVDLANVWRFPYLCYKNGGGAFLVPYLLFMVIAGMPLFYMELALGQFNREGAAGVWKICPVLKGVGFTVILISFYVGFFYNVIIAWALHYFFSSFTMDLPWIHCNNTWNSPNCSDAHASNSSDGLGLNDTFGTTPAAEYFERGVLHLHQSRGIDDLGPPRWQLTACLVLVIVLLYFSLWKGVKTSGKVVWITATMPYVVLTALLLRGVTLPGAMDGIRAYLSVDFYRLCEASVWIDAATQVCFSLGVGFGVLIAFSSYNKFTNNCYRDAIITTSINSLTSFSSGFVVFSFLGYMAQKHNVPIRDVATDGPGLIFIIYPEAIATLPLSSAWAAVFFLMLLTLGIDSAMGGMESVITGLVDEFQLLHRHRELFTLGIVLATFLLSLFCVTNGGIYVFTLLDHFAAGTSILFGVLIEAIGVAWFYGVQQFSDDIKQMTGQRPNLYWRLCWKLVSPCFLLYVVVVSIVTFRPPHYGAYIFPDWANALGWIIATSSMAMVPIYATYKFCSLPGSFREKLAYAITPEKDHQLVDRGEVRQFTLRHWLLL
compound,measurement,setting,value
"CC(O)C(O)C1CNc2nc(N)nc(N)c2N1 [H4-aminobiopterin, 2,4-diamino-5,6,7,8-tetrahydro-6-(L-erythro-1,2-dihydroxypropyl)-pteridine]",percent inhibition of control specific binding,[1],— (key: The symbol — indicates an inhibition of less than 10%.)
same,percent inhibition of control specific binding,[2],— (key: The symbol — indicates an inhibition of less than 10%.)
same,percent inhibition of control specific binding,[3],— (key: The symbol — indicates an inhibition of less than 10%.)
same,percent inhibition of control specific binding,[4],— (key: The symbol — indicates an inhibition of less than 10%.)
same,percent inhibition of control specific binding,[5],— (key: The symbol — indicates an inhibition of less than 10%.)
same,percent inhibition of control specific binding,[6],16%
same,percent inhibition of control specific binding,[7],— (key: The symbol — indicates an inhibition of less than 10%.)
same,percent inhibition of control specific binding,[8],— (key: The symbol — indicates an inhibition of less than 10%.)
same,percent inhibition of control specific binding,[9],— (key: The symbol — indicates an inhibition of less than 10%.)
same,percent inhibition of control specific binding,[10],— (key: The symbol — indicates an inhibition of less than 10%.)
same,percent inhibition of control specific binding,[11],— (key: The symbol — indicates an inhibition of less than 10%.)
same,percent inhibition of control specific binding,[12],— (key: The symbol — indicates an inhibition of less than 10%.)
same,percent inhibition of control specific binding,[13],— (key: The symbol — indicates an inhibition of less than 10%.)
same,percent inhibition of control specific binding,[14],— (key: The symbol — indicates an inhibition of less than 10%.)
same,percent inhibition of control specific binding,[15],— (key: The symbol — indicates an inhibition of less than 10%.)
same,percent inhibition of control specific binding,[16],— (key: The symbol — indicates an inhibition of less than 10%.)
same,percent inhibition of control specific binding,[17],10%
same,percent inhibition of control specific binding,[18],— (key: The symbol — indicates an inhibition of less than 10%.)
same,percent inhibition of control specific binding,[19],— (key: The symbol — indicates an inhibition of less than 10%.)
same,percent inhibition of control specific binding,[20],— (key: The symbol — indicates an inhibition of less than 10%.)
same,percent inhibition of control specific binding,[21],— (key: The symbol — indicates an inhibition of less than 10%.)
same,percent inhibition of control specific binding,[22],— (key: The symbol — indicates an inhibition of less than 10%.)
same,percent inhibition of control specific binding,[23],— (key: The symbol — indicates an inhibition of less than 10%.)
same,percent inhibition of control specific binding,[24],10%
same,percent inhibition of control specific binding,[25],— (key: The symbol — indicates an inhibition of less than 10%.)
same,percent inhibition of control specific binding,[26],— (key: The symbol — indicates an inhibition of less than 10%.)
same,percent inhibition of control specific binding,[27],— (key: The symbol — indicates an inhibition of less than 10%.)
same,percent inhibition of control specific binding,[28],— (key: The symbol — indicates an inhibition of less than 10%.)
same,percent inhibition of control specific binding,[29],— (key: The symbol — indicates an inhibition of less than 10%.)
same,percent inhibition of control specific binding,[30],— (key: The symbol — indicates an inhibition of less than 10%.)
same,percent inhibition of control specific binding,[31],— (key: The symbol — indicates an inhibition of less than 10%.)
same,percent inhibition of control specific binding,[32],— (key: The symbol — indicates an inhibition of less than 10%.)
same,percent inhibition of control specific binding,[33],— (key: The symbol — indicates an inhibition of less than 10%.)
same,percent inhibition of control specific binding,[34],— (key: The symbol — indicates an inhibition of less than 10%.)
same,percent inhibition of control specific binding,[35],— (key: The symbol — indicates an inhibition of less than 10%.)
same,percent inhibition of control specific binding,[36],— (key: The symbol — indicates an inhibition of less than 10%.)
same,percent inhibition of control specific binding,[37],— (key: The symbol — indicates an inhibition of less than 10%.)
same,percent inhibition of control activity,[38],— (key: The symbol — indicates an inhibition of less than 10%.)
same,percent inhibition of control activity,[39],76%
same,percent inhibition of control activity,[40],— (key: The symbol — indicates an inhibition of less than 10%.)
same,percent inhibition of control activity,[41],— (key: The symbol — indicates an inhibition of less than 10%.)
same,percent inhibition of control activity,[42],— (key: The symbol — indicates an inhibition of less than 10%.)
same,percent inhibition of control activity,[43],— (key: The symbol — indicates an inhibition of less than 10%.)
same,percent inhibition of control activity,[44],12%
same,percent inhibition of control activity,[45],— (key: The symbol — indicates an inhibition of less than 10%.)
same,percent inhibition of control activity,[46],— (key: The symbol — indicates an inhibition of less than 10%.)
same,percent inhibition of control activity,[47],— (key: The symbol — indicates an inhibition of less than 10%.)
same,percent inhibition of control activity,[48],— (key: The symbol — indicates an inhibition of less than 10%.)
same,percent inhibition of control activity,[49],— (key: The symbol — indicates an inhibition of less than 10%.)
same,percent inhibition of control activity,[50],23%
same,percent inhibition of control activity,[51],— (key: The symbol — indicates an inhibition of less than 10%.)
same,percent inhibition of control activity,[52],— (key: The symbol — indicates an inhibition of less than 10%.)
same,percent inhibition of control activity,[53],— (key: The symbol — indicates an inhibition of less than 10%.)
same,stimulation of control activity,[54],11
same,percent of inhibition of control activity,[55],31%
same,contraction relative to contraction caused by 124 mM K^+-Krebs solution,[56],clear concentration dependent contraction
same,contraction relative to contraction caused by 124 mM K^+-Krebs solution,[57],clear concentration dependent contraction
